Data taken from paper PMC6222316, “UPLC-MS/MS Method for the Determination of 14 Compounds in Rat Plasma and Its Application in a Pharmacokinetic Study of Orally Administered Xiaoyao Powder” (Molecules : A Journal of Synthetic Chemistry and Natural …, 2018).
Like-named read-outs stand apart in the source and are kept apart here.

Assay: Pharmacokinetic study of 14 compounds in rat plasma after oral administration of XYP (UPLC-MS/MS)
Assay type: in vivo, Sprague–Dawley rats
Parameters: Kel (elimination rate constant): unit not given here
Conditions: oral XYP 4 g/kg; for AUC(0-inf) / AUC(0-t) / Cmax / half-life / MRT last / MRT inf / Tmax: female, Sprague-Dawley; for MRT last: n = 6, read-out: MRT0–t; for MRT inf: n = 6, read-out: MRT0–∞; for Tmax: rat, plasma, po, 4 g/kg
Method: The validated UPLC-MS/MS method was successfully applied to the pharmacokinetic study of 14 compounds in rat plasma after the oral administration of XYP at a dose of 4 g/kg (8-fold the clinical dosage).
Quantitative analysis was conducted on a Waters® Micromass® Quattro Premier™ XE triple-quadrupole tandem mass spectrometer (Waters Corp., Milford, MA, USA). Chromatographic separation was performed on an ACQUITY UPLCTM BEH C18 column (1.7 µm, 50 × 2.1 mm; Waters Corp.) equipped with an ACQUITY UPLC C18 guard column. The column temperature was maintained at 35 °C. The mobile phase consisted of 0.1% formic acid in water (A) and acetonitrile (B). The total flow rate was 0.3 mL/min. Chromatographic separation was achieved using a 14.5-min gradient elution. The gradient conditions of the mobile phase were as follows: 0–4 min, 4–22% (B); 4–5 min, 22–27% (B); 5–10 min, 27–50% (B); and 10–14.5 min, 50–96% (B). The samples were kept at 4 °C in the auto-sampler, and the injection volume was 5 µL.
Methanol (1.5 mL), 10 μg/mL IS and 300 μL plasma was mixed, then vortexed for 1 min. After centrifuging at 14,000× g for 10 min, the supernatant was put into another centrifuge tube. The residue was vortexed with another 1.5 mL methanol and centrifuged again, and the two supernatants were combined and evaporated to dryness under a flow of nitrogen gas at 40 °C. The residue was then dissolved in 100 μL methanol and vortexed for 1 min. Finally, the vortexing and centrifugation process was again repeated, and 5 μL of the supernatant was injected into the UPLC-MS/MS system for analysis.
Twenty healthy female Sprague–Dawley rats (300 ± 20 g) were purchased from the Animal Safety Evaluation Center of Heilongjiang University of Chinese Medicine (Heilongjiang, China). All protocols for animal experiments were approved in accordance with the Regulations of Experimental Animal Administration issued by the State Commission of Science and Technology of the People’s Republic of China. The rats were kept under a light/dark cycle of 12 h, within the temperature range of 24 °C ± 2 °C to room temperature, and at a humidity of 50 ± 10%. All rats were fasted for 12 h before experimentation but were allowed to drink freely. XYP extract was dissolved in water, and the rats were administrated orally with 4 g/kg XYP. Blood samples were collected from the suborbital venous lexus at 0, 0.083, 0.17, 0.33, 0.50, 0.75, 1.0, 2.0, 4.0, 8.0, 12 and 24 h into 1.5-mL heparinized polythene tubes […]. The blood samples were immediately centrifuged at 4500 rpm for 10 min, and the plasma was stored at −80 °C until analysis. The pharmacokinetic parameters (Cmax, tmax, t1/2, Kel, AUC0–t, AUC0–∞, MRT0–t, MRT0–∞) were calculated with the software Winnolin 3.2.

[1] = mean ± SD, n = 6, read-out: tmax
[2] = read-out: tmax (time to maximum plasma concentration)

Row | AUC(0-inf) (mean ± SD, n = 6) [ng·h/mL] | AUC(0-t) (mean ± SD, n = 6) [ng·h/mL] | Cmax (mean ± SD, n = 6) [ng/mL] | half-life (mean ± SD, n = 6) [min] | MRT last (mean ± SD) [h] | MRT inf (mean ± SD) [h] | Tmax [1] [min] | Kel (elimination rate constant) (mean ± SD, n = 6) | Tmax [2] [min] | time of first detection in plasma [min] | shape of plasma concentration-time curve | time of second maximal plasma concentration | t1/2 (mean ± SD, n = 6) [h] | SMILES
1 | 135 ± 65.6 | 128 ± 64.9 | 58.3 ± 27.5 | 427 ± 274 | 4.18 ± 1.58 | 6.34 ± 4.5 | 23.4 ± 5.4 | 0.13 ± 0.06 | – | – | – | – | – | CC12CC(O)C3CC1(OC1OC(CO)C(O)C(O)C1O)C3(COC(=O)c1ccccc1)C(=O)O2 (centres unmarked) [Albiflorin, albiflorin]
2 | 185 ± 89.9 | 157 ± 76.7 | 33.6 ± 9.37 | 349 ± 195 | 5.98 ± 1.5 | 7.81 ± 3.39 | 23.4 ± 5.4 | 0.17 ± 0.12 | – | – | double peak | about 4 h | – | O=C(/C=C/c1ccc(O)cc1)c1ccc(O)cc1O [Isoliquiritigenin, isoliquiritigenin]
3 | 328 ± 198 | 286 ± 144 | 33.2 ± 12 | 386 ± 145 | 8.85 ± 1.09 | 11.5 ± 3.02 | 11.4 ± 4.2 | 0.12 ± 0.06 | – | – | double peak | about 4 h | – | O=C1C[C@@H](c2ccc(O)cc2)Oc2cc(O)ccc21 [Liquiritigenin, liquiritigenin]
4 | 181 ± 90.9 | 163 ± 91.5 | 57.9 ± 36.6 | – | 5.7 ± 1.25 | 10.2 ± 6.79 | 23.4 ± 5.4 | 0.09 ± 0.04 | – | – | double peak | – | 9.32 ± 5.49 | O=C1C[C@@H](c2ccc(O[C@@H]3O[C@H](CO)[C@@H](O)[C@H](O)[C@H]3O)cc2)Oc2cc(O)ccc21 [Liquiritin, liquiritin]
5 | 718 ± 227 | 697 ± 211 | 587 ± 181 | 289 ± 103 | 4.17 ± 1.38 | 4.91 ± 1.68 | 25.2 ± 5.4 | 0.16 ± 0.06 | – | – | – | – | – | C[C@@]12C[C@@]3(O)O[C@@H](O1)[C@]1(COC(=O)c4ccccc4)[C@H]3C[C@@]12O[C@@H]1O[C@H](CO)[C@@H](O)[C@H](O)[C@H]1O [Paeoniflorin, paeoniflorin]
6 | 782 ± 415 | 766 ± 410 | 491 ± 168 | 245 ± 74.4 | 6.4 ± 0.85 | 7.03 ± 1.02 | 6 ± 1.8 | 0.19 ± 0.07 | 6 | – | – | ~8 h | – | O=c1c(O)c(-c2ccc(O)c(O)c2)oc2cc(O)cc(O)c12 [Quercetin, quercetin]

The remaining lines, values behind:

Row | SMILES | AUC(0-inf) (mean ± SD, n = 6) [ng·h/mL] | AUC(0-t) (mean ± SD, n = 6) [ng·h/mL] | Cmax (mean ± SD, n = 6) [ng/mL] | half-life (mean ± SD, n = 6) [min] | MRT last (mean ± SD) [h] | MRT inf (mean ± SD) [h] | Tmax [1] [min] | Kel (elimination rate constant) (mean ± SD, n = 6) | Tmax [2] [min] | time of first detection in plasma [min] | shape of plasma concentration-time curve | time of second maximal plasma concentration | t1/2 (mean ± SD, n = 6) [h]
7 | C=C1CCC[C@]2(C)C[C@@H]3OC(=O)C(C)=C3C[C@@H]12 [Atractylenolide II, atractylenolide II] | 70.2 ± 25.6 | 69.5 ± 25.7 | 22.5 ± 8.04 | 212 ± 72.6 | 4.15 ± 0.82 | 4.43 ± 0.98 | 38.4 ± 17.4 | 0.21 ± 0.07 | – | – | – | – | –
8 | C=C1CCC[C@]2(C)C[C@]3(O)OC(=O)C(C)=C3C[C@@H]12 [Atractylenolide III, atractylenolide III] | 1130 ± 487 | 1040 ± 497 | 230 ± 108 | 417 ± 159 | 6.23 ± 1.55 | 8.6 ± 3.13 | 40.2 ± 15.6 | 0.11 ± 0.05 | – | – | – | – | –
9 | COc1cc(/C=C/C(=O)O)ccc1O [Ferulic acid, ferulic acid] | 1610 ± 853 | 1580 ± 851 | 632 ± 244 | 318 ± 111 | 3.97 ± 0.8 | 4.66 ± 0.52 | 12.6 ± 6 | 0.15 ± 0.05 | 12 | 5 | – | – | –
10 | CC1(C)[C@@H](O[C@H]2O[C@H](C(=O)O)[C@@H](O)[C@H](O)[C@H]2O[C@@H]2O[C@H](C(=O)O)[C@@H](O)[C@H](O)[C@H]2O)CC[C@]2(C)[C@H]3C(=O)C=C4[C@@H]5C[C@@](C)(C(=O)O)CC[C@]5(C)CC[C@@]4(C)[C@]3(C)CC[C@@H]12 [Glycyrrhizic acid, glycyrrhizic acid] | 156 ± 59.6 | 138 ± 57 | 18.6 ± 6.61 | 458 ± 321 | 10.1 ± 0.58 | 13.6 ± 5.72 | 19.8 ± 6.6 | 0.12 ± 0.05 | – | – | double peaks | – | –
11 | CCC/C=C1\OC(=O)C2=C1CCC=C2 [Ligustilide, ligustilide] | 207 ± 58.5 | 194 ± 57.7 | 65 ± 42.2 | 326 ± 185 | 5.63 ± 2.32 | 7.47 ± 4.23 | 18.6 ± 7.8 | 0.17 ± 0.10 | ~18 | – | – | – | –
12 | C[C@H]1O[C@@H](O[C@H]2CC[C@@]3(C)[C@@H](CC[C@]4(C)[C@@H]3C=C[C@]35OC[C@@]6(CCC(C)(C)C[C@H]63)[C@@H](O)C[C@]54C)[C@]2(C)CO)[C@H](O)[C@@H](O[C@@H]2O[C@H](CO)[C@@H](O)[C@H](O)[C@H]2O)[C@H]1O [Saikosaponin a, saikosaponin a] | 18 ± 6.88 | 16.3 ± 5.15 | 6.05 ± 1.3 | 388 ± 154 | 6.61 ± 1.12 | 8.88 ± 3.49 | 25.2 ± 5.4 | 0.12 ± 0.03 | – | – | double peaks | – | –
13 | C[C@@H]1O[C@@H](O[C@H]2[C@H](O)[C@@H](O)[C@H](O[C@H]3CC[C@]4(C)[C@H]5C=C[C@]67OC[C@@]8(CCC(C)(C)C[C@H]86)[C@@H](O)C[C@@]7(C)[C@]5(C)CC[C@H]4C3(C)C)O[C@@H]2CO[C@@H]2O[C@H](CO)[C@@H](O)[C@H](O)[C@H]2O)[C@H](O)[C@H](O)[C@H]1O [Saikosaponin c, saikosaponin c] | 5.93 ± 2.19 | 5.61 ± 1.92 | 0.96 ± 0.33 | 254 ± 170 | 6.49 ± 1.17 | 7.67 ± 2.7 | 25.2 ± 5.4 | 0.22 ± 0.11 | – | – | double peaks | – | –
14 | CCC/C=C1\OC(=O)C2=C1CC[C@H](O)[C@H]2O [Senkyunolide I, senkyunolide I] | 1620 ± 967 | 1580 ± 986 | 403 ± 201 | 285 ± 167 | 5.31 ± 0.72 | 6.37 ± 2.39 | 21.6 ± 7.8 | 0.18 ± 0.07 | – | – | – | – | –
